Data published in patent US20230330151A1, “COMPOSITION FOR PROMOTING DIFFERENTIATION OF NEURAL STEM CELLS INTO DOPAMINERGIC NEURONS” (CHA UNIVERSITY INDUSTRY-ACADEMIC COOPERATION FOUNDATION, priority 2020, published 2023).

Legend:
[1] = test system: FMD-NSPCs (fetal midbrain derived neural stem/progenitor cells); experiment: Differentiation of neural stem cells into dopaminergic neurons, immunochemical staining for TH and Tuj1; assay type: cell-based, human; conditions: FIG. 3; FA: 0.1 mM; over time of differentiation
FMD-NPCs = experiment: Differentiation rate by subculture number, TH expression measured by fluorescence intensity; assay type: cell-based, human; conditions: FIG. 11; as the cells were subcultured
Description: For each group, neural stem cells (A) subcultured less than 10 times, (B) subcultured 10 or more times and 20 or less times, (C) subcultured 20 or more times were used to compare average values, to compare and analyze differentiation rates according to a subcultured number.

In the case of `CCCCc1ccc(C(=O)O)nc1` [FA alone, 5-butylpicolinic acid], the Tuj1 expression [1] is reported as “increased over time”, the “expression of TH” value [1] is reported as “decreased over time” and the “rate of differentiation into TH” value (FMD-NPCs) is reported as “gradually decreased”.
